Reference: patent US11053204B2, “Pyrimidinyloxy benzene derivatives as herbicides” (FMC Corporation, priority 2015, dated 2021)

Legend:
Assay type in all cases: in vivo
[1] = test system: Italian ryegrass (Lolium multiflorum); assay: Test A preemergence, visual injury rating
Summary of the method: (§1)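 Scoring: eye-based comparison with untreated controls, 0 for no effect through 100 for complete control, at about day 10. Treatments: directed soil spray preemergence; foliar spray postemergence on 2–10 cm plants at the one- to two-leaf stage. Medium: loam soil with sand.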

[2] = test system: barnyardgrass (Echinochloa crus-galli); assay: Test A preemergence, visual injury rating
Summary of the method: as §1

[3] = test system: giant foxtail (Setaria faberii); assay: Test A preemergence, visual injury rating
Summary of the method: as §1

[4] = test system: kochia (Kochia scoparia); assay: Test A preemergence, visual injury rating
Summary of the method: as §1

[5] = test system: pigweed (Amaranthus retroflexus); assay: Test A preemergence, visual injury rating
Summary of the method: as §1

[6] = test system: ragweed (common ragweed, Ambrosia elatior); assay: Test A preemergence, visual injury rating
Summary of the method: as §1

[7] = test system: Italian ryegrass (Lolium multiflorum); assay: Test A postemergence, visual injury rating; conditions: 0 to 100 scale, 0 is no effect, 100 is complete control, approximately 10 days
Summary of the method: as §1

[8] = test system: barnyardgrass (Echinochloa crus-galli); assay: Test A postemergence, visual injury rating; conditions: 0 to 100 scale, 0 is no effect, 100 is complete control, approximately 10 days
Summary of the method: as §1

[9] = test system: blackgrass (Alopecurus myosuroides); assay: Test A postemergence, visual injury rating; conditions: 0 to 100 scale, 0 is no effect, 100 is complete control, approximately 10 days
Summary of the method: as §1

[10] = test system: corn (Zea mays); assay: Test A postemergence, visual injury rating; conditions: 0 to 100 scale, 0 is no effect, 100 is complete control, approximately 10 days
Summary of the method: as §1

[11] = test system: galium (catchweed bedstraw, Galium aparine); assay: Test A postemergence, visual injury rating; conditions: 0 to 100 scale, 0 is no effect, 100 is complete control, approximately 10 days
Summary of the method: as §1

[12] = test system: giant foxtail (Setaria faberii); assay: Test A postemergence, visual injury rating; conditions: 0 to 100 scale, 0 is no effect, 100 is complete control, approximately 10 days
Summary of the method: as §1

[13] = test system: kochia (Kochia scoparia); assay: Test A postemergence, visual injury rating; conditions: 0 to 100 scale, 0 is no effect, 100 is complete control, approximately 10 days
Summary of the method: as §1

[14] = test system: pigweed (Amaranthus retroflexus); assay: Test A postemergence, visual injury rating; conditions: 0 to 100 scale, 0 is no effect, 100 is complete control, approximately 10 days
Summary of the method: as §1

[15] = test system: ragweed (common ragweed, Ambrosia elatior); assay: Test A postemergence, visual injury rating; conditions: 0 to 100 scale, 0 is no effect, 100 is complete control, approximately 10 days
Summary of the method: as §1

[16] = test system: wheat (Triticum aestivum); assay: Test A postemergence, visual injury rating; conditions: 0 to 100 scale, 0 is no effect, 100 is complete control, approximately 10 days
Summary of the method: as §1

[17] = test system: barnyardgrass (Echinochloa crus-galli); assay: Test B flooded paddy test, plant response rating; conditions: 250 g ai/ha; Flood; scale of 0 to 100 where 0 is no effect and 100 is complete control; 13 to 15 days
Summary of the method: (§2)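 In-water treatment: compound dosed into 3 cm flood over soil, water level unchanged throughout. Controls run alongside; visual assessment at day 13–15.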

[18] = test system: ducksalad (Heteranthera limosa); assay: Test B flooded paddy test, plant response rating; conditions: 250 g ai/ha; Flood; scale of 0 to 100 where 0 is no effect and 100 is complete control; 13 to 15 days
Summary of the method: as §2

[19] = test system: rice (Oryza sativa); assay: Test B flooded paddy test, plant response rating; conditions: 250 g ai/ha; Flood; scale of 0 to 100 where 0 is no effect and 100 is complete control; 13 to 15 days
Summary of the method: as §2

[20] = test system: sedge, umbrella (small-flower umbrella sedge, Cyperus difformis); assay: Test B flooded paddy test, plant response rating; conditions: 250 g ai/ha; Flood; scale of 0 to 100 where 0 is no effect and 100 is complete control; 13 to 15 days
Summary of the method: as §2

[21] = 31 g ai/ha, 0 to 100 scale, 0 no effect, 100 complete control
[22] = 125 g ai/ha, 0 to 100 scale (0 no effect, 100 complete control)

Row | Compound | Plant response rating, Ryegrass, Italian [1, 21] | Plant response rating, Ryegrass, Italian [1, 22] | Plant response rating, Barnyardgrass [2, 21] | Plant response rating, Barnyardgrass [2, 22] | Plant response rating, Foxtail, Giant [3, 21] | Plant response rating, Foxtail, Giant [3, 22] | Plant response rating, Kochia [4, 21] | Plant response rating, Kochia [4, 22] | Plant response rating, Pigweed [5, 21] | Plant response rating, Pigweed [5, 22] | Plant response rating, Ragweed [6, 21] | Plant response rating, Ragweed [6, 22] | Ryegrass, Italian plant response rating ([7]; 31 g ai/ha) | Ryegrass, Italian plant response rating ([7]; 125 g ai/ha) | Barnyardgrass plant response rating ([8]; 31 g ai/ha) | Barnyardgrass plant response rating ([8]; 125 g ai/ha) | Blackgrass plant response rating ([9]; 31 g ai/ha) | Blackgrass plant response rating ([9]; 125 g ai/ha) | Corn plant response rating ([10]; 31 g ai/ha) | Corn plant response rating ([10]; 125 g ai/ha) | other results
1 | CCCCC(C#N)c1c(Br)cccc1Oc1ncc(Cl)cn1 (stereo not drawn) [Compound 114] | 0 | 0 | 0 | 20 | 10 | 90 | 0 | 10 | 0 | 30 | 20 | 80 | 0 | 10 | 0 | 10 | 0 | 10 | 10 | 20 | Galium plant response rating ([11]; 31 g ai/ha): 50; Galium plant response rating ([11]; 125 g ai/ha): 80; Foxtail, Giant plant response rating ([12]; 31 g ai/ha): 0; Foxtail, Giant plant response rating ([12]; 125 g ai/ha): 20; Kochia plant response rating ([13]; 31 g ai/ha): 20; Kochia plant response rating ([13]; 125 g ai/ha): 80; Pigweed plant response rating ([14]; 31 g ai/ha): 50; Pigweed plant response rating ([14]; 125 g ai/ha): 100; Ragweed plant response rating ([15]; 31 g ai/ha): 0; Ragweed plant response rating ([15]; 125 g ai/ha): 20; Wheat plant response rating ([16]; 31 g ai/ha): 0; Wheat plant response rating ([16]; 125 g ai/ha): 10; Plant response rating, Barnyardgrass [17]: 0; Plant response rating, Ducksalad [18]: 40; Plant response rating, Rice [19]: 0; Plant response rating, Sedge, Umbrella [20]: 90
2 | CC(C)Oc1cccc(Oc2ncc(Cl)cn2)c1C(=O)OCCC(F)(F)F [Compound 115] | 0 | 0 | 0 | 0 | 0 | 0 | 70 | 0 | 0 | 0 | 20 | 0 | 0 | 0 | 0 | 0 | 0 | 20 | 0 | 10 | Galium plant response rating ([11]; 31 g ai/ha): 20; Galium plant response rating ([11]; 125 g ai/ha): 20; Foxtail, Giant plant response rating ([12]; 31 g ai/ha): 0; Foxtail, Giant plant response rating ([12]; 125 g ai/ha): 0; Kochia plant response rating ([13]; 31 g ai/ha): 0; Kochia plant response rating ([13]; 125 g ai/ha): 0; Pigweed plant response rating ([14]; 31 g ai/ha): 10; Pigweed plant response rating ([14]; 125 g ai/ha): 40; Ragweed plant response rating ([15]; 31 g ai/ha): 0; Ragweed plant response rating ([15]; 125 g ai/ha): 0; Wheat plant response rating ([16]; 31 g ai/ha): 0; Wheat plant response rating ([16]; 125 g ai/ha): 0; Plant response rating, Barnyardgrass [17]: 0; Plant response rating, Ducksalad [18]: 0; Plant response rating, Rice [19]: 0; Plant response rating, Sedge, Umbrella [20]: 0
3 | CCOc1cccc(Oc2ncc(Cl)cn2)c1C(=O)OCCC(F)(F)F [Compound 116] | 0 | 0 | 0 | 0 | 0 | 30 | 0 | 0 | 50 | 70 | 30 | 0 | 0 | 0 | 0 | 10 | 0 | 0 | 0 | 10 | Galium plant response rating ([11]; 31 g ai/ha): 30; Galium plant response rating ([11]; 125 g ai/ha): 60; Foxtail, Giant plant response rating ([12]; 31 g ai/ha): 0; Foxtail, Giant plant response rating ([12]; 125 g ai/ha): 20; Kochia plant response rating ([13]; 31 g ai/ha): 0; Kochia plant response rating ([13]; 125 g ai/ha): 10; Pigweed plant response rating ([14]; 31 g ai/ha): 40; Pigweed plant response rating ([14]; 125 g ai/ha): 50; Ragweed plant response rating ([15]; 31 g ai/ha): 0; Ragweed plant response rating ([15]; 125 g ai/ha): 0; Wheat plant response rating ([16]; 31 g ai/ha): 0; Wheat plant response rating ([16]; 125 g ai/ha): 0; Plant response rating, Barnyardgrass [17]: 30; Plant response rating, Ducksalad [18]: 75; Plant response rating, Rice [19]: 70; Plant response rating, Sedge, Umbrella [20]: 90
4 | O=C(OCCC(F)(F)F)c1c(OCC(F)(F)F)cccc1Oc1ncc(Cl)cn1 [Compound 117] | 0 | 0 | 0 | 0 | 0 | 20 | 0 | 0 | 0 | 30 | 0 | 0 | 0 | 0 | 0 | 10 | 0 | 10 | 10 | 10 | Galium plant response rating ([11]; 31 g ai/ha): 60; Galium plant response rating ([11]; 125 g ai/ha): 100; Foxtail, Giant plant response rating ([12]; 31 g ai/ha): 0; Foxtail, Giant plant response rating ([12]; 125 g ai/ha): 10; Kochia plant response rating ([13]; 31 g ai/ha): 20; Kochia plant response rating ([13]; 125 g ai/ha): 50; Pigweed plant response rating ([14]; 31 g ai/ha): 30; Pigweed plant response rating ([14]; 125 g ai/ha): 70; Ragweed plant response rating ([15]; 31 g ai/ha): 0; Ragweed plant response rating ([15]; 125 g ai/ha): 20; Wheat plant response rating ([16]; 31 g ai/ha): 0; Wheat plant response rating ([16]; 125 g ai/ha): 0; Plant response rating, Barnyardgrass [17]: 0; Plant response rating, Ducksalad [18]: 20; Plant response rating, Rice [19]: 0; Plant response rating, Sedge, Umbrella [20]: 60
